# How the values were obtained:
# Format in all cases: cell-based
# GAVE10 [1] = biological target: T1, GAVE10 (Homo sapiens, UniProt Q8TDU6); assay: FLIPR assay, PSC cells transfected with GAVE10 (calcium signaling); conditions: PSC cells alone vs PSC cells transfected with GAVE10; FIG. 1
# T1 construct: expressed in transfected cells; host or cells: PSC cells
# T1 sequence (Q8TDU6 1-330): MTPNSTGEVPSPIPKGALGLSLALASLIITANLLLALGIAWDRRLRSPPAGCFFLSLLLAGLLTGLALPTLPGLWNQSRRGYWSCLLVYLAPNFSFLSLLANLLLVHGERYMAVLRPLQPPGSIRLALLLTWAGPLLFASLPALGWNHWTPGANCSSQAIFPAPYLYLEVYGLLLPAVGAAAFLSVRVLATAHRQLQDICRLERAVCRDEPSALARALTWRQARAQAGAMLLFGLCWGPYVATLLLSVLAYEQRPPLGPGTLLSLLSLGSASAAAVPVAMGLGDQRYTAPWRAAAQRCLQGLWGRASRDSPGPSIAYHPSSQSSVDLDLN
# Experimental: Compounds A, B, and C and lithocholic acid (LCA) were incubated, respectively, with PSC cells alone and PSC cells transfected with GAVE10, and the cells were then assayed in a FLIPR® assay.
# To screen for agonists of human GAVE10, hGAVE10 was coupled artificially to a Gq mechanism. Activation of the Gq mechanism stimulates the release of Ca^2+ from sarcoplasmic reticulum vesicles within the cell. The Ca^2+ was released into the cytoplasm where it can be detected using Ca^2+ chelating dyes. A Fluorometric Imaging Plate Reader (i.e., a FLIPR® apparatus, Molecular Devices) was used to monitor any resulting changes in fluorescence. The activity of an agonist was reflected by any increase in fluorescence.
# CHO-KI cells expressing hGAVE10 were pre-engineered to express an indiscriminate form of Gq protein (G016). To prepare such cells, Gα16-coupled CHO cells were obtained commercially (Molecular Devices LIVEWARE™ cells, Catalog No. RD-HGAI6) and the protocol in Example 2 followed to facilitate expression of hGAVE10 in those cells. The cells were maintained in log phase of growth at 37° C. and 5% CO2 in F12 Ham's media (Gibco/BRL, Catalog No. 11765-054) containing 10% fetal bovine serum, 100 IU/ml penicillin (Gibco/BRL, Catalog No. 15140-148), 100 μg/ml streptomycin (Catalog No. 15140-148, Gibco/BRL), 400 μg/ml genetecin (G418) (Gibco/BRL, Catalog No. 10131-035) and 200 μg/ml zeocin (Invitrogen, Catalog No. R250-05). […]
# The CCD camera (Princeton Instruments) of the FLIPR® II (Molecular Devices) instrument was set at an f-stop of 2.0 and an exposure of 0.4 seconds. […] Changes in fluorescence were measured for 10 seconds prior to compound addition. After the addition of the compound, fluorescence was measured every second for the first minute followed by exposures taken every six seconds for a total experimental analysis time of three minutes. […] The maximum fluorescence changes for the first 80 scans were recorded as a measure of agonist activity and compared to the maximum fluorescence change induced by 10 μM ATP (Sigma A9062).
# GAVE10 [2] = biological target: T1, GAVE10; assay: cAMP assay, PSC cells transfected with GAVE10; conditions: PSC cells alone vs PSC cells transfected with GAVE10; FIG. 2
# Experimental: Compounds A, B, and C and LCA were incubated, respectively, with PSC cells alone and PSC cells transfected with GAVE 10, and the cells were then assayed in a cAMP assay.
# [3] = test system: TNFα release in mouse macrophages; assay: TNFα release assay in mouse macrophages; conditions: FIG. 3
# [4] = test system: IL-6 production in mouse macrophages; assay: IL-6 production in mouse macrophages; conditions: male and female, effect more pronounced in male, FIG. 4
SMILES,activation of calcium-signaling pathways via GAVE10 (FLIPR) (GAVE10 [1]),increase of intracellular cAMP via GAVE10 activation (GAVE10 [2]),inhibition of TNFα release [3],inhibition of IL-6 production [4]
CC(CCC(=O)NCC[N+](C)(C)C)C1CCC2C3CCC4CC(O)CCC4(C)C3CC(O)C12C (stereo not drawn) [Compound A],bind to GAVE10 to activate calcium-signaling pathways,activate GAVE10 to increase intracellular cAMP,inhibited TNFα release,–
C[C@H](CCC(=O)O)[C@H]1CC[C@H]2[C@@H]3CC[C@@H]4C[C@H](O)CC[C@]4(C)[C@H]3C[C@H](O)[C@]12C [DCA],–,–,–,inhibit IL-6 production
CC(CCC(=O)N1CCN(C)CC1)C1CCC2C3CCC4CC(O)CCC4(C)C3CC(O)C12C (stereo not drawn) [Compound B],bind to GAVE10 to activate calcium-signaling pathways,activate GAVE10 to increase intracellular cAMP,inhibited TNFα release,–
CC(CCC(=O)NCCN1CCOCC1)C1CCC2C3CCC4CC(O)CCC4(C)C3CC(O)C12C (stereo not drawn) [Compound C],bind to GAVE10 to activate calcium-signaling pathways,activate GAVE10 to increase intracellular cAMP,–,–

# — patent publication US20060111331A1, “Gave10 agonists for treating inflammation” (Aventis Pharmaceuticals Inc., priority 2004, published 2006)
